The record followed here is patent US12528801B2 (Givaudan SA, priority 2019, dated 2026).

One assay concerns the target T1, hTRPM8 (Homo sapiens, UniProt Q7Z2W7).
T1 construct: expressed in transfected cells
Put plainly: Assay on TRPM8 modulators: calcium imaging (Fluo-4, Flexstation) in HEK293 cell line stably expressing hTRPM8. The format is cell-based. The note with it: HEK293 cells stably expressing hTRPM8; calcium influx, Fluo-4, Flexstation 3; sigmoidal dose-response fit. The gist of the method:
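HEK293 cells stably expressing hTRPM8 were loaded with Fluo-4 AM plus probenecid and kept in HEPES buffer, pH 7.4. Calcium influx to serially diluted compounds was recorded for 120 s. Maximal activation was referenced to solvent control and 31.6 μM menthol, with EC values from sigmoidal dose-response fits.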

The subject of assay [1] is trained group of panelists. Briefly: Sensory studies in model dentifrice (trained panel, tooth brushing). The format is in vivo, human. The note with it: 40 ppm in model unflavored dentifrice; for Cooling after 1 h: 1 h after brushing; for Cooling after 1 h / Max. cooling: panel-averaged score 0 to 10; for Time of max. cooling / Max. cooling: brushing with 1 g for 60 seconds; for Max. cooling: stock in propylene glycol (A) or benzyl alcohol (B). As for the experimental part: The compounds listed in Table 3 were dissolved at a concentration of 1 wt-% in propylene glycol^A or benzyl alcohol^B (respective solvents indicated in Table 3). These solutions were then dispersed in appropriate quantities to obtain the desired final concentration of 40 ppm (parts per million) of the test compound into a model, unflavored dentifrice, the formula of which is given below (ingredients obtained from the suppliers respectively indicated in parenthesis).
A trained group of panelists evaluated the dentifrice containing a compound of formula (I), by brushing their teeth with 1 g of the dentifrice using a toothbrush for 60 seconds, followed by spitting, without rinsing the mouth afterwards for the duration of the evaluation. Panelists evaluated and recorded the cooling performance as well as other sensorial and organoleptic attributes at different timepoints over a period of two hours. Cooling performance was rated on a scale from 0 to 10 with 0 being no effect and 10 being freezing. Scores were averaged for all panelists and the cooling intensity qualified as “none” (score of 0), “low” (score above 0, up to 1), “medium” (score above 1, up to 4) “strong” (score above 4, up to 8) and “freezing” (score above 8), which are summarized below in Table 3.

Assay [2] concerns trained group of panelists. Briefly: Sensory studies in aqueous solution (trained panel, mouth swill). The format is in vivo, human. The note with it: 10 ppm in aqueous solution; for Time of max. cooling / Max. cooling: 20 mL swilled in the mouth for 60 seconds; for Max. cooling / Cooling after 1 h: panel-averaged cooling score, scale 0 to 10; for Cooling after 1 h: 1 h after swilling. As to the method:
The compounds as listed below in Table 2 were dissolved at a concentration of 1 wt-% in propylene glycol. These solutions were then dispensed in appropriate quantities into deionized water containing 0.5 wt-% Poloxamer 407 (which is a hydrophilic non-ionic surfactant, e.g., commercially available from SigmaAldrich) and 0.25 wt-% Cremaphor® RH40 (obtained from BASF) as solubilizer, to obtain the desired final concentration of 10 ppm (parts per million) of the respective compound.
A trained group of panelists evaluated the aqueous solutions containing test compound by swilling 20 mL of the solution in the mouth for 60 seconds, followed by spitting, without rinsing the mouth afterwards for the duration of the evaluation. Panelists evaluated and recorded the cooling performance as well as other sensorial and organoleptic attributes at different timepoints over a period of two hours. Cooling performance was rated on a scale from 0 to 10 with 0 being no effect and 10 being freezing. Scores were averaged for all panelists and the cooling intensity qualified as “none” (score of 0), “low” (score above 0, up to 1), “medium” (score above 1, up to 4) “strong” (score above 4, up to 8) and “freezing” (score above 8), which are provided in Table 2.

T1 sequence (Q7Z2W7 whole entry): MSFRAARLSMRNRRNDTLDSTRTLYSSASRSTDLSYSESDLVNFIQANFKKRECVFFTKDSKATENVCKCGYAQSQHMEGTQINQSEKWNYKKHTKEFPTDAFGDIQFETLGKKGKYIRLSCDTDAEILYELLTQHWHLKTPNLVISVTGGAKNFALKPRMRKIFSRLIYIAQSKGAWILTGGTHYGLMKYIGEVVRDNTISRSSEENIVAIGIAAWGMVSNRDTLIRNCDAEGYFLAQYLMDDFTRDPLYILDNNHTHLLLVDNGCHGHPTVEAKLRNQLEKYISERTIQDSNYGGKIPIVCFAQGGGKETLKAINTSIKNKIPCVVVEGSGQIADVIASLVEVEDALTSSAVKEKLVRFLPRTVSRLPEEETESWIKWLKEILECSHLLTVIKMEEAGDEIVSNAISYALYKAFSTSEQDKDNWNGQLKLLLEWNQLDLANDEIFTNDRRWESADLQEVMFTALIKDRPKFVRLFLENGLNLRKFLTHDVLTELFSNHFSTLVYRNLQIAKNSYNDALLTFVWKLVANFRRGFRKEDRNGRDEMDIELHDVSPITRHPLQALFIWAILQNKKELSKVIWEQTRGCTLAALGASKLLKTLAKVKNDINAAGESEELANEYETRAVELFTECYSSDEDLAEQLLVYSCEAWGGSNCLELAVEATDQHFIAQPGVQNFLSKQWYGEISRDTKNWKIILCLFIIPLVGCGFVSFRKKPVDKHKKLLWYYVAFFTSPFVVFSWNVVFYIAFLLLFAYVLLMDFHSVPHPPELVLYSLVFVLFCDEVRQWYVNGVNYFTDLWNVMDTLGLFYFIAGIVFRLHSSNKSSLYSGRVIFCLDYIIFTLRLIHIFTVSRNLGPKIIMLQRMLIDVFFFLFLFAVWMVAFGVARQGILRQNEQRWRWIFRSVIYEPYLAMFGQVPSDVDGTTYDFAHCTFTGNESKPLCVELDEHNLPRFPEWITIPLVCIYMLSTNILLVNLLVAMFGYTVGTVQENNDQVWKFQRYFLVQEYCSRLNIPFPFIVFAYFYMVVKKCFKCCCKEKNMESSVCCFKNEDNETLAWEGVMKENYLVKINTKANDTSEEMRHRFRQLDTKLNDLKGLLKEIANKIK

For `CS[C@H](C)C(=O)N1CCCC[C@@H]1c1ncc(-c2ccc(C)cc2)[nH]1` [Compound 11, (R)-2-(methylthio)-1-((R)-2-(5-(p-tolyl)-1H-imidazol-2-yl)piperidin-1-yl)propan-1-one], the concentration giving a half-maximal response (EC50) at hTRPM8 was under 50 nM. In addition, in assay [1], the “Cooling after 1 h” value is recorded as “M (M = medium)”, the “Time of max. cooling” value came out at 20 min and the Max. cooling entry is reported as “S (S = Strong)”. Further, in assay [2], the “Time of max. cooling” value was determined as 10 min, the Max. cooling entry was “S (S = Strong)” and the “Cooling after 1 h” value is reported as “M (M = medium)”.
Turning to `CCSC(C)C(=O)N1CCCCC1c1ncc(-c2ccc(C)cc2)[nH]1` (stereo not shown) [Compound 95, 2-(ethylthio)-1-(2-(5-(p-toly)-1H-imidazol-2-yl)piperidin-1-yl)propan-1-one], the EC50 on hTRPM8 is under 50 nM. Also, in assay [1], the “Cooling after 1 h” value is recorded as “L (L = Low)”, the “Time of max. cooling” value was found to be 5 min and the Max. cooling entry was “M (M = medium)”. Further, in assay [2], the “Time of max. cooling” value amounted to 10 min, the Max. cooling result was “M (M = medium)” and the “Cooling after 1 h” value was “M (M = medium)”.
As for `CSC(C)C(=O)N1CCCCC1c1ncc(-c2ccc(C(F)(F)F)cc2)[nH]1` (stereo not shown) [Compound 124, 2-(methylthio)-1-(2-(5-(4-(trifluoromethyl)phenyl)-1H-imidazol-2-yl)piperidin-1-yl)propan-1-one], the EC50 at hTRPM8 was under 50 nM. For the same compound, in assay [1], the “Cooling after 1 h” value was “M (M = medium)”, the “Time of max. cooling” value was 30 min and the Max. cooling entry is listed as “M (M = medium)”. In addition, in assay [2], the “Time of max. cooling” value stood at 20 min, the Max. cooling entry was “M (M = medium)” and the “Cooling after 1 h” value is given as “M (M = medium)”.
With `CSC(C)C(=O)N1CCCCC1c1ncc(-c2ccc(C)cc2)[nH]1` (stereo not shown) [Compound 130, 2-(methylthio)-1-(2-(5-(p-toly)-1H-imidazol-2-yl)piperidin-1-yl)propan-1-one], the concentration for a half-maximal effect (EC50) on hTRPM8 was under 50 nM. In addition, in assay [1], the “Cooling after 1 h” value was “M (M = medium)”, the “Time of max. cooling” value is 20 min and the Max. cooling entry is “S (S = Strong)”. In assay [2], the “Time of max. cooling” value came to 20 min, the Max. cooling result is recorded as “S (S = Strong)” and the “Cooling after 1 h” value was “M (M = medium)”.
For `C=CC(C)C(=O)N1CCCCC1c1ncc(-c2ccc(C)cc2)[nH]1` (stereo not shown) [Compound 163, 2-methyl-1-(2-(5-(p-tolyl)-1H-imidazol-2-yl)piperidin-1-yl)but-3-en-1-one], at hTRPM8, the EC50 is under 50 nM. For the same compound, in assay [1], the “Cooling after 1 h” value is “M (M = medium)”, the “Time of max. cooling” value is recorded as 5 min and the Max. cooling entry is “M (M = medium)”. In assay [2], the “Time of max. cooling” value was 10 min, the Max. cooling entry is listed as “S (S = Strong)” and the “Cooling after 1 h” value is “M (M = medium)”.
Consider `CCC(C)C(=O)N1CCCCC1c1ncc(-c2ccc(C)cc2)[nH]1` (stereo not shown) [Compound 164, 2-methyl-1-(2-(5-(p-tolyl)-1H-imidazol-2-yl)piperidin-1-yl)butan-1-one], for which, at hTRPM8, the EC50 is under 50 nM. Besides, in assay [1], the “Cooling after 1 h” value is recorded as “M (M = medium)”, the “Time of max. cooling” value is on record as 10 min and the Max. cooling entry is listed as “S (S = Strong)”. Moreover, in assay [2], the “Time of max. cooling” value amounted to 10 min, the Max. cooling result is reported as “S (S = Strong)” and the “Cooling after 1 h” value is “M (M = medium)”.
For `CC[C@H](C)C(=O)N1CCCCC1c1ncc(-c2ccc(C)cc2)[nH]1` (stereo partly drawn) [Compound 166, (2S)-2-methyl-1-(2-(5-(p-tolyl)-1H-imidazol-2-yl)piperidin-1-yl)butan-1-one], the EC50 at hTRPM8 is under 50 nM. In assay [1], the “Cooling after 1 h” value is recorded as “M (M = medium)”, the “Time of max. cooling” value was determined as 10 min and the Max. cooling result is reported as “S (S = Strong)”. Also, in assay [2], the “Time of max. cooling” value was 20 min, the Max. cooling result is “S (S = Strong)” and the “Cooling after 1 h” value was “M (M = medium)”.
